According to paper PMC7834599 (Bioorganic & Medicinal Chemistry Letters, 2020):
pIC50: −log10 of the molar value.

What was measured:
[1] = tested on: TNF-α; assay: TNF-α release in LPS-ATP treated THP-1 cells; format: cell-based, Human
[2] = biological target: T1, AIM2 inflammasome (Homo sapiens, UniProt O14862); assay: Poly; format: cell-based; details: THP-1 cells, Poly (dA:dT)
T1 sequence (O14862 1-343): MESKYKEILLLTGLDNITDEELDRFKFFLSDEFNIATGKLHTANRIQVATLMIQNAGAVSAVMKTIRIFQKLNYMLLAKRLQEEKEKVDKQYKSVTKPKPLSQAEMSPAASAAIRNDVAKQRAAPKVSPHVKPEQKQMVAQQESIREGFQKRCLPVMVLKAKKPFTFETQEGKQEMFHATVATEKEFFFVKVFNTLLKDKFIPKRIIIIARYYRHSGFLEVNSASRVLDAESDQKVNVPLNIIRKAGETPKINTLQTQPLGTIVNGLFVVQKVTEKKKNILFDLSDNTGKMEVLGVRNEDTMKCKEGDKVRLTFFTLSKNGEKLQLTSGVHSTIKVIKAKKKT

[3] = tested on: ASC; assay: ASC oligomerization assay in THP-1 cells; format: cell-based, Human; details: LPS-ATP NLRP3 activated THP-1 cells, western blot
[4] = biological target: CYP2C9 (Homo sapiens, UniProt P11712); assay: CYP inhibition in human liver microsomes; format: in vitro ADME
[5] = biological target: T2, CYP2C8 (Homo sapiens, UniProt P10632); assay: CYP inhibition in human liver microsomes; format: in vitro ADME
T2 sequence (P10632 1-490): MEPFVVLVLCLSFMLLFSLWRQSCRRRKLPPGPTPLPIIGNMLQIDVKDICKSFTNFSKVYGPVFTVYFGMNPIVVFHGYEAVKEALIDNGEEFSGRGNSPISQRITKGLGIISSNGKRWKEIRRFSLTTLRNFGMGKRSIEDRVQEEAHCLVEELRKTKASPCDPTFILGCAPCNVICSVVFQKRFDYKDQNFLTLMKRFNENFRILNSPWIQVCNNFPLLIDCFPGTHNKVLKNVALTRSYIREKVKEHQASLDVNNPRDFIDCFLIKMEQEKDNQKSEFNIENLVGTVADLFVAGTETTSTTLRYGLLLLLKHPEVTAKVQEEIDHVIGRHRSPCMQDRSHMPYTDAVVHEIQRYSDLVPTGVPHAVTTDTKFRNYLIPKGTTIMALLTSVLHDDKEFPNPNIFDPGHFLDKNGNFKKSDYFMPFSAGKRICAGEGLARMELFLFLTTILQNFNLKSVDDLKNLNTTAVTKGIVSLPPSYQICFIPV

[6] = biological target: NLRP3 inflammasome (Homo sapiens, UniProt Q96P20); assay: IL-1β release assay, NLRP3 inflammasome activation in THP-1 cells; format: cell-based
Sequence of NLRP3 inflammasome (Q96P20 whole entry): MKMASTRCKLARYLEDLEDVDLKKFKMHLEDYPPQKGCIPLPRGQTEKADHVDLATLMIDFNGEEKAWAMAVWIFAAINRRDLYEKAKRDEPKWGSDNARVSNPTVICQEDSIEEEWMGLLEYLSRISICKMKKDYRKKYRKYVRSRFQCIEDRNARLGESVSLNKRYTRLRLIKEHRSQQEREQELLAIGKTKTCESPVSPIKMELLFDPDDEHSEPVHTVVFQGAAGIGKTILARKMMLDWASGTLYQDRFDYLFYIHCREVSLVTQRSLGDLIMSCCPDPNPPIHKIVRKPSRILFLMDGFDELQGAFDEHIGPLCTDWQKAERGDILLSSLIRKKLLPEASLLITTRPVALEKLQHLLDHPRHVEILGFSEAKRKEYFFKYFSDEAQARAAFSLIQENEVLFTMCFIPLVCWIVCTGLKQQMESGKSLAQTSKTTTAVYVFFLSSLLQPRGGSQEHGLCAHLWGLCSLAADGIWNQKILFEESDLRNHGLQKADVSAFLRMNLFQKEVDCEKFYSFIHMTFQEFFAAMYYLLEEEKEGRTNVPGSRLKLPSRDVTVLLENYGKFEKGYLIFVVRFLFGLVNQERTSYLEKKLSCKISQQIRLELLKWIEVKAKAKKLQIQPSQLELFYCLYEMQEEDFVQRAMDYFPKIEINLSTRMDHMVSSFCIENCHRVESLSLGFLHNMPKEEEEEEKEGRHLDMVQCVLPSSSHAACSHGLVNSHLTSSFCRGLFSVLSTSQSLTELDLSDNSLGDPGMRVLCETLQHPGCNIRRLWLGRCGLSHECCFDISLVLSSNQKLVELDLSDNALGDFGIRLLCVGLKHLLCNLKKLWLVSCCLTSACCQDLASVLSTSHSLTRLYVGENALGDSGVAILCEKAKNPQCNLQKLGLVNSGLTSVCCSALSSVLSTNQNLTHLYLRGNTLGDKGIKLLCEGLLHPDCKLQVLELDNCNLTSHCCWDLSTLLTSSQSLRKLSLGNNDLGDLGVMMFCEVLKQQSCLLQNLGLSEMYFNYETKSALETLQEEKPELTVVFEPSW

Sequence of CYP2C9 (P11712 whole entry): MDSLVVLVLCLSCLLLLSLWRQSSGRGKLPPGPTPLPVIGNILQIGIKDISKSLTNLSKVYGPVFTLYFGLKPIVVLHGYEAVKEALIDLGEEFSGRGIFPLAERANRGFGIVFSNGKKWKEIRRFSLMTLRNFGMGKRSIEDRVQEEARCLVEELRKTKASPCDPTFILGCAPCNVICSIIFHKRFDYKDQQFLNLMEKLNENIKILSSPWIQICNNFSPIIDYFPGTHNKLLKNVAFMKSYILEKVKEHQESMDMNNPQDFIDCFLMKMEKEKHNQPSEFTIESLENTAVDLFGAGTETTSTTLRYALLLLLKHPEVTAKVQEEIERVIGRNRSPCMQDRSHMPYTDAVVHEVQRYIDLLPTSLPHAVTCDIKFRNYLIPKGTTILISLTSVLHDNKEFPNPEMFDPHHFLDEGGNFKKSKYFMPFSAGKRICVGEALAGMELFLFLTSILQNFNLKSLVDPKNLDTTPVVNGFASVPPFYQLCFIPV

Row | SMILES | pIC50 ([1]; Homo sapiens, THP-1, read-out: TNF-α IC50) | inhibition of secreted TNF-α (in words) ([1]; THP-1 cells, LPS-ATP, up to high concentration) | inhibition of secreted IL-1β in AIM2 inflammasome activation (in words) [2] | ASC oligomerization (in words) [3] | CYP2C9 inhibition (in words) [4] | CYP2C8 inhibition (in words) [5] | pIC50 [6] | inhibition at 1 µM ([6]; THP-1, read-out: inhibition of secreted IL-1β) [%]
1 | O=C(Nc1c2c(cc3c1CCC3)CCC2)NS(=O)(=O)/C=C/c1nccs1 [Compound 7, (E)-N-((1,2,3,5,6,7-hexahydro-s-indacen-4-yl)carbamoyl)-2-(thiazol-2-yl)ethene-1-sulfonamide] | < 5.00 | not affected | no effect | blocked the oligomerisation of ASC | inhibit | inhibit |  | 
2 | O=C(NS(=O)(=O)/C=C/c1nccs1)c1c2c(cc3c1OCC3)OCC2 [Compound 20] |  |  |  |  |  |  | < 6.00 | < 50
